Measurements taken from publication PMC3568925 (Biochemistry, 2013).

Target: BacD (Bacillus subtilis, UniProt P39641)
Test: LC/MS and 1H-NMR of dipeptide product
Assay type: biochemical
Details: 1 mM substrate, 3 mM L-Ala, 3 mM ATP, 5 mM MgCl2, 20 uM BacD, 50 mM potassium phosphate pH 8.0, room temperature

BacD, sequence (P39641 whole entry): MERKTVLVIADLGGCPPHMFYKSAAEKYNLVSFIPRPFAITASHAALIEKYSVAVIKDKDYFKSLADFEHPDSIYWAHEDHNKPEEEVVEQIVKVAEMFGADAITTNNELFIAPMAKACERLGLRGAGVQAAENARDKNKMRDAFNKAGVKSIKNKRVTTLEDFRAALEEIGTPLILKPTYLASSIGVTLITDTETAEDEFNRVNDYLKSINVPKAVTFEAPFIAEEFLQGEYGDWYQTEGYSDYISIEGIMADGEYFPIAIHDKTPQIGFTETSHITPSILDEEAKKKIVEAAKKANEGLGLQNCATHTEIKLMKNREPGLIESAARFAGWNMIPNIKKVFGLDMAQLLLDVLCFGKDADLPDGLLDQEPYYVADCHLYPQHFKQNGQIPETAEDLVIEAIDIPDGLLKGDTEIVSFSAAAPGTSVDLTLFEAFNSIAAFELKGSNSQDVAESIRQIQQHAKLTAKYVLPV

N[C@@H](C[C@H]1C=C[C@H](O)CC1)C(=O)O [4S-H4Tyr]
LC/MS and 1H-NMR of dipeptide product: BacD would ligate L-Ala onto the N-terminus of both the 4S and 4R diastereomers
